Reference: patent US20240424115A1, “LONG-ACTING INTERLEUKIN-15 RECEPTOR AGONISTS AND RELATED IMMUNOTHERAPEUTIC COMPOSITIONS AND METHODS” (Nektar Therapeutics, priority 2017, published 2024)

How the values were obtained:
[1] = system: NK cells, CD8 T cells, CD4 T cells; assay: In vivo PD study in mice: lymphocyte cell numbers, proliferation and activation; parameters: species or system Balb/c mice
Source text: NK cells and their proliferation were defined using CD45+CD3-CD49b+ and CD45+CD3-CD49b+Ki67+ marker combinations. Following dosing, blood samples were acquired on the Fortessa flow cytometer running FACS DIVA software. Flowjo software was used for analysis and NK cell absolute values and Ki67% positivity within NK cells were plotted using Prism.
In mouse, four different maturation states of NK cells are defined by CD27 and CD11b expression. Once NK marker (CD49b+), natural activating NK receptor (NKp46+) and IL-15/IL-2RB (CD122+) triple positive cells were identified, immature (CD11b−CD27−), early (CD11b−CD27+), high effector (CD11b+CD27+) and terminal effector (CD11b+CD27−) NK cells were quantified by flow cytometry.
NK cells in various maturation states were quantified in mice receiving a single dose, or after the third dose of a q7dx3 schedule, of Conjugate 1 at 0.01, 0.03, 0.1, 0.3, 1.0, and 1.5 mg/kg as described above. Using flow cytometry, the NK population of interest was identified by CD49b, NKp46 and CD122 positivity. CD11b and CD27 were then used to further differentiate the NK population in immature (CD11b-CD27−), early NK (CD11b−CD27+), high effector (CD11b+CD27+) and terminal effector (CD11b+CD27−) subpopulations. Peripheral blood was run on the Fortessa flow cytometer and absolute values for each population were determined using counting beads during sample acquisition using BD FACS DIVA software. Flow cytometric analysis was conducted using Flowjo software and data plotted in Prism.
The surface expression of NKG2D was conducted using flow cytometric analysis of anti-NKG2D signal, expressed as mean fluorescence intensity (MFI) in NK cells. Similarly, the level of intracellular granzyme B was conducted using flow cytometry-based detection of anti-Granzyme B signal, also expressed as MFI in NK cells. Following detection of NKG2D and granzyme B signal using the Fortessa flow cytometer and FACS Diva software, analysis was conducted using Flowjo software. MFI values were plotted using Prism. […] Dose-dependent increases in both NK activation markers was observed following a single dose of Conjugate 1.
In mouse, CD8 T cells were defined as CD45+CD3+CD4−CD8+. Blood and spleen from mice were subject to immunophenotyping using the Fortessa flow cytometer and with analysis using Flowjo software. Absolute CD8 cell counts were plotted in Prism as shown in FIG. 14 (blood) and FIG. 24 (spleen). FIG. 14 and FIG. 24 illustrate the ability of Conjugate 1 to induce proliferation and a sustained increase in numbers of CD8 T-cells following a single i.v. administration in mice at each of the dosage amounts described above. The impact is most notable for the medium (0.1mg/kg, 0.3 mg/kg) and high (1.0 mg/kg, 1.5 mg/kg) dosage amounts.
In mouse, CD8 effector memory (Tem) and CD8 central memory (TCM) T cells were identified as CD45+CD3+CD4−CD8+CD44+CD62− and CD45+CD3+CD4−CD8+CD44+CD62L+. Proliferation of these memory populations was conducted using Ki-67 positivity. Following a single dose of Conjugate 1 or IL-15, blood and spleen were subject to immunophenotyping using the Fortessa flow cytometer, DIVA acquisition software and Flowjo analysis software. Graphs were plotted in Prism. […] Both effector and central memory populations proliferate in response to administration of Conjugate 1, an exemplary long acting IL-15 agonist.
NK-cell Granzyme B expression as a function of time was measured following treatment with Conjugate 1 at doses of 0.01 mg/kg, 0.03 mg/kg, 0.1 mg/kg, 0.3 mg/kg, 1 mg/kg, and 1.5 mg/kg. Whole blood was collected from 24 to 240 hours post-dose for immunophenotyping. Once red blood cells were lysed, white blood cells were labeled with viability dye and markers specific for CD45, CD3 and CD49b to identify live NK cells. Cells were then simultaneously fixed and permeabilized for intracellular Granzyme B staining. Stained blood was run on a Fortessa flow cytometer, acquired by DIVA software and analyzed using Flowjo software. […]

[2] = system: CD4, CD8, and NK cells; assay: In vivo IL-15 signaling (STAT5 phosphorylation in lymphocytes) in mice
Source text: Conventional approaches, such as those involving radiolabeling a compound, administering the compound in vivo, and determining its clearance, can be used to assess whether a compound proposed to be a long-acting, IL-15 R agonist is “long-acting” (i.e., has a clearance that is longer than that of IL-15 administered in the same in vivo system). For the purposes herein, the long acting nature of a long-acting IL-15 R agonist may be, and is typically determined using flow cytometry to measure STAT5 phosphorylation in lymphocytes at various time points after administration of the agonist to be evaluated in mice. As a reference, the signal is lost by around 24 hours with IL-15, but is sustained for a period greater than that for a long-acting IL-15 agonist.
Mice were dosed as described in Example 6 above to assess in-vivo signaling as assessed by degree of STAT5 phosphorylation. Degree of STAT5 phosphorylation in various lymphocytes (CD4, CD8, and NK cells) was assessed by staining whole blood for leukocyte surface markers and pSTAT5, followed by measurement by flow cytometry. Results are shown in FIGS. 8A and 8 B for IL-15 and for Conjugate 2, respectively.
[PK methods previously described herein].
STAT5 phosphorylation in CD4 T cells was determined by using a CD3+CD4+CD8-pSTAT5+ marker combination. FIG. 43 is a plot of pSTAT5 phosphorylation percent positivity within CD4 T cells over time (at 0.25, 1, 6, 24, 48, 72, 96 and 120 hours post administration) at a dose of 0.03 mg/kg (blue, solid squares) or 0.3 mg/kg (orange, solid circles). The vehicle over time (black) and pre-dose (open circles) levels are also shown.

[3] = Balb/c mice, single i.v. 0.03 or 0.3 mg/kg, compared to CD8 and NK cells
[4] = mice, blood, single dose 0.3 mg/kg

mono-mPEG-SBA40K-IL-15 [Conjugate 1]
Granzyme B percent positivity in blood NK cells ([1]; Balb/c mice, 0.03 and 0.3 mg/kg (Example 18)): induced significant increases in NK Granzyme B expression | CD4 T cell numbers and % Ki-67 [1, 3]: relatively small increase in numbers and % Ki-67 expression | percent of NK cells positive for Granzyme B expression ([1]; mice, 0.01-1.5 mg/kg, 24 to 240 hours (Example 15)): increases NK-cell Granzyme B expression | duration of increase in NK cell number ([1]; mice, all dose levels): at least 96 hours | duration of increase in % Ki67 ([1]; mice, all dose levels, compared to vehicle): at least 120 hours | increase in CD8 Tcm cell numbers [1, 4]: 37.9 X | increase in CD8 Tem cell numbers [1, 4]: 14.5 X | increase in CD8 cell numbers [1, 4]: 6.4 X | duration of increase of NK cells in all maturation sub-populations ([1]; mice, i.v., Example 11): at least 120 hours | duration of increase in NK cell number ([1]; mice, medium and high dose levels): at least 144 hours | duration of increase in % Ki67 ([1]; mice, medium dose ranges (0.1 mg/kg and 0.3 mg/kg)): at least 144 hours | increase in CD8 Tcm cell numbers ([1]; mice, repeated dosing Q7dx3): 183 X | increase in CD8 Tem cell numbers ([1]; mice, repeated dosing Q7dx3): 73.8 X | increase in CD8 cell numbers ([1]; mice, repeated dosing Q7dx3): 35.3 X | Ki67 and Granzyme B in CD49b cells, spleen ([1]; mice, single dose): dose-dependent increase in both Ki67 and Granzyme B | Ki-67 in effector and central memory CD8 T cells, blood ([1]; mice, single dose): dose-dependent increase in both effector and central memory CD8 T cells | dose levels inducing a significant increase in total CD8 T cells in the blood ([1]; mice, single dose): ≥ 0.03 mg/kg | NK cell numbers ([1]; mice, single dose 0.01 to 1.5 mg/kg): increase significantly above vehicle control at all dose levels | CD8 and CD8 memory T cell numbers at end of time course ([1]; mice, single dose 0.3-1.5 mg/kg): did not return to baseline at 240 hours post injection | NKG2D and Granzyme B expression (MFI) by NK cells ([1]; mice, single i.v. 0.03, 0.3, 1 mg/kg vs vehicle): sustained increase in both NKG2D and Granzyme B | time increased CD8 cell numbers were maintained compared to vehicle ([1]; mice, single iv injection): at least 240 hours | pSTAT5 expression in CD4 T cells [2, 3]: relatively less increase in pSTAT5 expression | pSTAT5 percent positivity within NK cells ([2]; balb/c mice, single injection 0.03 and 0.3 mg/kg): induces robust and sustained pSTAT5 signaling in NK cells | pSTAT5 percent positivity within CD8 T cells ([2]; balb/c mice, single injection 0.03 and 0.3 mg/kg, 120 h): induces sustained pSTAT5signaling in CD8 T cells

IL-15: recombinant human IL-15 from E. coli, SEQ ID NO: 1, non-glycosylated, 12.9 kDa; unconjugated comparator
Ki67 and Granzyme B in CD49b cells, spleen ([1]; mice, single dose): does not | duration of in-vivo STAT5 phosphorylation activity in NK and CD8 cells ([2]; C57BL/6 mice, single i.v. 0.3 mg/kg): extremely short-lived | time by which the STAT5 phosphorylation signal in lymphocytes is lost ([2]; mice, reference): around 24 hours
